In patent publication US20250388571A1, “AMP-ACTIVATED PROTEIN KINASE MODULATOR COMPOUNDS AND USES THEREOF” (Biolexis Therapeutics, Inc., priority 2024, published 2025):
“Also recorded” adds a separate entry of the source. Read-outs that look alike come from different tables or passages of the source.

Key:
[1] = Plasma, liver and adipose tissue concentration in db/db mice, day 36; assay type: in vivo, mice (Mus musculus; db/db C57BL/6); conditions: post 4 hours dosing on day 36; for concentration at 4 h: male, db/db C57BL/6, mouse, oral
Experimental: A mixture of DMSO (2%), Cremophor EL (2%), Tween 80 (1%), 0.5% methyl cellulose (35%), and water (60%) was used for the formulation. Doses were prepared at concentrations of 30 and 50 mg/kg. Administration was oral, daily for 36 days. Male mice (Mus musculus; db/db C57BL/6) aged 8-9 weeks and weighing less than or equal to 40 grams were used for the study. Groups were assigned 10 mice per group.
G2 and G3 plasma, liver and adipose tissue samples were collected post 4 hours dosing on day 36.

[2] = system: AMPK signal pathway in human liver cells-HepG2; assay: Western blot assay, HepG2 cells
Experimental: Samples for immunoblotting studies were prepared for electrophoresis by adding in a final concentration of 1× Laemmli loading buffer (supplemented with 5% 2-mercaptoethanol). Samples were then electrophorized by SDS-PAGE (4-15% or 4-20% Criterion TGX Precast gel, Bio-Rad) at a constant voltage within the range of 140V. Proteins were transferred to a nitrocellulose membrane (Bio-Rad) using the Trans-Blot Turbo transfer system (Bio-Rad). Membranes were blocked with 5% BSA in TBST for a minimum of 1 hour at room temperature before incubating with the following primary antibodies: • Phospho-AMPKα (Thr172) (40H9) Rabbit mAb (CST, cat no: 2535S), • AMPKα Antibody (CST, cat no: 2532S) • Phospho-Raptor (Ser792) Antibody (CST, cat no: 2083S) • Raptor (24C12) Rabbit mAb (CST, cat no: 2280S) • Phospho-Acetyl-CoA Carboxylase (Ser79) Antibody (CST, cat no: 3661S) • Acetyl-CoA Carboxylase Antibody (CST, cat no: 3662S) • AMPKα2 Antibody (CST, cat no: 2757S) • AMPKβ1 antibody (CST, cat no: 12063) • AMPKβ2 Antibody (CST, CST, cat no: 4148S) • AMPKγ3 Antibody (CST, cat no: 2550S).

[3] = system: AMPK signal pathway in human cardiac myocytes (HCM); assay: Western blot assay, human cardiomyocytes; assay type: cell-based
[4] = system: human hepatocytes-THLE-2 cells; assay: Glucose uptake assay, THLE-2 cells; assay type: cell-based
Experimental: FIGS. 13-16 show results for glucose update assays in THLE-2 cells (ATCC, cat. No. CRL-2706) when treated with compound I-11 (FIG. 13), compound I-7 (FIG. 14), MK-8722 (FIG. 15), and PF-06409577 (FIG. 16). The THLE-2 cells were starved for 3 hours in high glucose DMEM without FBS, treated with the components noted above in DMEM without FBS/glucose for 1 hour, and glucose uptake was detected using a glucose uptake kit (Promega). The bars show (from left to right) concentrations of 100 μM, 33 μM, 11 μM, 3.7 μM, 1.23 μM, 0.41 μM, 0.14 μM, 0.045 μM, 0.015 μM, 0.005 μM, 0 μM, and insulin.
(§1) Human skeletal myoblasts were obtained (Thermofisher; BYU) and cultured in DMEM/F12 medium with 10% FBS. For differentiation, 2% horse serum low glucose DMEM medium was employed for 72 hours. Human cardiomyocytes cells (HCM cells; Promocell) were cultured in myocyte growth medium (Promocell). Human preadipocyte HWP-c cells (Promocell) were obtained from upper arm of diabetic II donor. Human preadipocyte HWP-c cells (Promocell) were obtained from abdomen of diabetic II donor. For differentiating human preadipocytes, cells were cultured in preadipocyte growth medium to total confluency stage. The growth medium was replaced with preadipocyte differentiation medium for 72 hours, then changed to PromoCell adipocyte nutrition medium to complete the differentiation process. THLE-2 cells were cultured in BEGM from Lonza/Clonetics Corporation, Walkersville, MD 21793 (BEGM Bullet Kit; CC3170). HepG2, L6 and C2Cl2 cells were cultured in EMEM medium.
(§2) After differentiation myoblasts, preadipocyte cells were starved by removing the medium and adding 100 μL DMEM without serum. The medium was then replaced with 100 μL DMEM±1 μM insulin at indicated concentration of representative compounds without serum or glucose. The cells were then incubated for 1 hour at 37° C. in 5% CO2. The cells were then removed from the medium and 50 μL of 0.1 mM 2DG in PBS was added. Cells were incubated for 30 minutes at 25° C. 25 μL of Stop Buffer was added and samples were mixed. 25 μL of Neutralization Buffer was then added and mixed. 100 μL of 2DG6P Detection Reagent was then added and mixed. Samples were then incubated for 1 hour at 25° C. Luminescence was then recorded with 0.3-1 second integration on a luminometer.

[5] = system: human skeletal muscle cells (HSKM cells); assay: Glucose uptake assay, human skeletal muscle cells; assay type: cell-based
Experimental: FIGS. 1-4 show results for cells treated with differing doses of representative compounds of Structure (I) (i.e., compound I-11 in FIG. 1 and compound I-7 in FIG. 2) as well reference compounds (i.e., PF-06409577 in FIG. 3 and MK-8722 in FIG. 4). […] Cells were starved for 3 hours in high glucose DMEM without FBS, then treated with indicated compounds in DMEM without FBS/glucose for 1 hour, and glucose uptake was detected using an uptake glucose kit (Promega). The bars show (from left to right) concentrations of 100 μM, 33 μM, 11 μM, 3.7 μM, 1.23 μM, 0.41 μM, 0.14 μM, 0.045 μM, 0.015 μM, 0.005 μM, 0 μM, and insulin.
as §1, §2

[6] = system: AMPK signal pathway in L6 cells; assay: Western blot assay, L6 cells
Experimental: Samples for immunoblotting studies were prepared for electrophoresis by adding in a final concentration of 1× Laemmli loading buffer (supplemented with 5% 2-mercaptoethanol). Samples were then electrophorized by SDS-PAGE (4-15% or 4-20% Criterion TGX Precast gel, Bio-Rad) at a constant voltage within the range of 140V. Proteins were transferred to a nitrocellulose membrane (Bio-Rad) using the Trans-Blot Turbo transfer system (Bio-Rad). Membranes were blocked with 5% BSA in TBST for a minimum of 1 hour at room temperature before incubating with the following primary antibodies: • Phospho-AMPKα (Thr172) (40H9) Rabbit mAb (CST, cat no: 2535S), • AMPKα Antibody (CST, cat no: 2532S) • Phospho-Raptor (Ser792) Antibody (CST, cat no: 2083S) • Raptor (24C12) Rabbit mAb (CST, cat no: 2280S) • Phospho-Acetyl-CoA Carboxylase (Ser79) Antibody (CST, cat no: 3661S) • Acetyl-CoA Carboxylase Antibody (CST, cat no: 3662S) • AMPKα2 Antibody (CST, cat no: 2757S) • AMPKβ1 antibody (CST, cat no: 12063) • AMPKβ2 Antibody (CST, CST, cat no: 4148S) • AMPKγ3 Antibody (CST, cat no: 2550S). […]
After differentiation of cells (e.g., HSKM, C2C12, L6) for 5 days, medium was changed to DHEM without FBS and glucose for starving cells for 2 hours. […] The resultant reaction mixture was then assayed and semi-quantitative histogram analysis of Western Blotting (signal value) was used to determine results.

O=c1[nH]c(-c2c[nH]c3cc(F)c(-c4ccc(C5(O)CCC5)cc4)c(F)c23)no1 [Compound I-11, 3-(4,6-difluoro-5-(4-(1-hydroxycyclobutyl)phenyl)-1H-indol-3-yl)-1,2,4-oxadiazol-5(4H)-one]
Liver (ng/mL), PK concentration, Average ([1]; 30 mg/kg): BLQ | Liver (ng/mL), PK concentration, Average ([1]; 50 mg/kg): BLQ | concentration at 4 h ([1]; adipose tissue, 30 mg/kg, read-out: Adipose tissue (ng/mL), PK concentration, Average): 19.5 ng/mL | concentration at 4 h ([1]; adipose tissue, 50 mg/kg, read-out: Adipose tissue (ng/mL), PK concentration, Average): 11 ng/mL | concentration at 4 h ([1]; plasma, 30 mg/kg, read-out: Plasma (ng/mL), PK concentration, Average): 244 ng/mL | concentration at 4 h ([1]; plasma, 50 mg/kg, read-out: Plasma (ng/mL), PK concentration, Average): 197 ng/mL | p-AMPK/p-ACC and AMPKα2β1β2γ3 activation [2]: dosage-dependent manner | p-ACC/p-AMPK and AMPKα2β2γ3 expression [3]: did not activate | glucose uptake [4]: induced glucose uptake; also recorded: dosage-dependent manner | glucose uptake compared with reference compounds, based on RLU values [5]: much more glucose uptake compared with reference compounds | dose dependence of glucose uptake (printed: activation of insulin / AMPK activation) ([5]; 100 μM to 0.005 μM, 1 hour): dose-dependent manner; also recorded: dose dependence | glucose uptake ([5]; starved, treated 1 hour): induced glucose uptake; also recorded: increased glucose uptake | pAMPK/pACC/AMPKα2γ3 expression [6]: can also induce
